Measurements published in US20090298780A1, “Methods To Produce Lung Surfactant Formulations Via Lyophilization And Formulations And Uses Thereof” (priority 2004, published 2009).
≈ marks a conversion by molar mass, not a printed value.

Columns and labels:
[1] = Achievable dissolution concentrations of individual components in 60% TBA cosolvent without NaCl; format: physicochemical; settings: 60% TBA without NaCl; for Measured Concentration (mg/ml) AVG: average of 3, room temperature; for Measured Concentration (mg/ml) 1: replicate 1; for Measured Concentration (mg/ml) 2: replicate 2; for Measured Concentration (mg/ml) 3: replicate 3
[2] = Individual component solubility in t-butanol/water solutions (HPLC); settings: about 37° C.
Method: Aliquots of each lipid and peptide were accurately weighed into 1.5 ml Eppendorf tubes. […] To each tube 0.2 ml of solvent was added. Each tube was vortexed and then bath sonicated for several minutes to facilitate dissolution. Samples were then placed in a 37° C. bath for approximately 30 minutes and then removed and placed on the counter for up to 30 minutes. […] Three independent Eppendorf tubes were prepared and tested for each solute-solvent combination. Visual observations were made of each tube as to whether they appeared a) clear (i.e., apparently fully soluble), b) to contain non-dissolved material, or c) indeterminate. Small aliquots of each tube were then taken, diluted in the HPLC running buffer, and analyzed by HPLC. HPLC was performed using a CIS column by established methods.

SMILES | Measured Concentration (mg/ml) AVG [1] | Measured Concentration (mg/ml) 1 [1] | Measured Concentration (mg/ml) 2 [1] | Measured Concentration (mg/ml) 3 [1] | Solubility (mg/ml) 50% ([2]; 50% t-butanol/water) | Solubility (mg/ml) 80% ([2]; 80% t-butanol/water) | Solubility (mg/ml) 90% ([2]; 90% t-butanol/water) | Solubility (mg/ml) 95% ([2]; 95% t-butanol/water) | Solubility (mg/ml) 97.5% ([2]; 97.5% t-butanol/water) | Solubility (mg/ml) 99% ([2]; 99% t-butanol/water) | Solubility (mg/ml) 100% ([2]; 100% t-butanol)
CCCCCCCC/C=C\CCCCCCCC(=O)O[C@H](COC(=O)CCCCCCCCCCCCCCC)COP(=O)(O)OCC(O)CO (stereo partly drawn) [POPG, palmitoyloleoyl phosphatidylglycerol] | 290.9 mg/mL | 298.4 mg/mL | 283.7 mg/mL | 290.6 mg/mL | >47 mg/mL | >119 mg/mL | >160 mg/mL | 34 mg/mL (≈ 45.4 mM) | 20 mg/mL (≈ 26.7 mM) | <5 mg/mL | <5 mg/mL
CCCCCCCCCCCCCCCC(=O)OC[C@H](COP(=O)([O-])OCC[N+](C)(C)C)OC(=O)CCCCCCCCCCCCCCC [DPPC, dipalmitoyl phosphatidylcholine] | 35.0 mg/mL | 34.8 mg/mL | 35.0 mg/mL | 35.2 mg/mL | – | – | – | – | – | – | –
